Where two headings read alike, the source gives them in different places.
Columns and labels:
[1] = tested on: asynchronous 3D7-A10 parasite cultures; assay: Standard 72-h exposure asexual blood stage susceptibility assay (IC50^72h); type: cell-based, Plasmodium falciparum; conditions: Plasmodium falciparum, 3D7, 72 h, read-out: Overall (72hr assay) Mean IC50 (IC50^72h)
[2] = tested on: 3D7-MR4 trophozoite parasite-infected RBCs; assay: Metabolomic profiling (hydrophilic metabolite changes, UHPLC-MS); type: cell-based, Plasmodium falciparum
[3] = tested on: Plasmodium falciparum 3D7-A10 parasites; assay: Stage specificity assay (8-h exposure of synchronized stages, IC50^8h); type: cell-based; conditions: for IC50: Plasmodium falciparum
[4] = tested on: 3D7-A10 or Dd2-B2 parasites; assay: Resistance selections (single step, pulsing or ramping); type: cell-based, Plasmodium falciparum
[5] = 10 × IC50^72h, 2.5 hr, trophozoites

CCCOCc1cc(CN2CCN(c3cccc(Cl)c3)CC2)c(O)c2ncccc12 [MMV000787]
IC50 [1]: 1.96 µM
metabolic signature: increases in the pyrimidine precursors dihydroorotate and N-carbamoyl-L-aspartate (mETC disruption) [2, 5]: observed
orotidine 5-P levels [2, 5]: decreased
Log2(fold changes) 3-phosphoglycerate ([2]; metabolite 3-phosphoglycerate, log2 fold change): -0.5371
Log2(fold changes) 4-Pyridoxic acid ([2]; metabolite 4-Pyridoxic acid, log2 fold change): -0.4654
Log2(fold changes) 4-aminobutyrate ([2]; metabolite 4-aminobutyrate, log2 fold change): 0.0414
Log2(fold changes) 4-phosphopantetheine ([2]; metabolite 4-phosphopantetheine, log2 fold change): 0.0000
Log2(fold changes) 4-phosphopantothenate ([2]; metabolite 4-phosphopantothenate, log2 fold change): -0.5845
Log2(fold changes) 5-aminopentanoic acid ([2]; metabolite 5-aminopentanoic acid, log2 fold change): 0.0000
Log2(fold changes) 5-methyl-THF ([2]; metabolite 5-methyl-THF, log2 fold change): 0.0000
Log2(fold changes) 5-phosphoribosyl-1-pyrophosphate ([2]; metabolite 5-phosphoribosyl-1-pyrophosphate, log2 fold change): 0.0000
Log2(fold changes) 6-phospho-D-gluconate ([2]; metabolite 6-phospho-D-gluconate, log2 fold change): -0.3590
Log2(fold change) HVDD ([2]; metabolite HVDD): -0.3092
Log2(fold change) Hydroxyisocaproic acid ([2]; metabolite Hydroxyisocaproic acid): 0.0000
Log2(fold change) IDP ([2]; metabolite IDP): 0.0000
Log2(fold change) IMP ([2]; metabolite IMP): -0.1140
Log2(fold change) Inositol ([2]; metabolite Inositol): 0.0000
Log2(fold change) Isopentyl-PP ([2]; metabolite Isopentyl-PP): -1.2940
Log2(fold change) L-arginino-succinate ([2]; metabolite L-arginino-succinate): 0.4157
Log2(fold change) LD ([2]; metabolite LD): 0.2463
Log2(fold change) Myristoyl/tetradecanoyl-CoA ([2]; metabolite Myristoyl/tetradecanoyl-CoA): 0.0000
Log2(fold change) N-Acetyl-L-alanine ([2]; metabolite N-Acetyl-L-alanine): -0.3215
Log2(fold change) N-acetyl-L-ornithine ([2]; metabolite N-acetyl-L-ornithine): -0.0825
Log2(fold change) N-acetyl-glucosamine-1/6-phosphate ([2]; metabolite N-acetyl-glucosamine-1/6-phosphate): -0.1305
Log2(fold change) N-acetyl-glutamate ([2]; metabolite N-acetyl-glutamate): -0.2597
Log2(fold change) N-acetyl-glutamine ([2]; metabolite N-acetyl-glutamine): -0.3137
Log2(fold change) N-carbamoyl-L-aspartate ([2]; metabolite N-carbamoyl-L-aspartate): 1.8530
Log2(fold change) NAD+ ([2]; metabolite NAD+): -0.4850
Log2(fold change) NADH ([2]; metabolite NADH): 0.6916
Log2(fold change) NADP+ ([2]; metabolite NADP+): -0.1054
Log2(fold change) NADPH ([2]; metabolite NADPH): 0.8357
Log2(fold change) O-acetyl-L-serine ([2]; metabolite O-acetyl-L-serine): 0.0023
Log2(fold change) Octoluse 8/1P ([2]; metabolite Octoluse 8/1P): -0.4530
Log2(fold change) Octoluse Bisphosphate ([2]; metabolite Octoluse Bisphosphate): -0.4981
Log2(fold change) PD ([2]; metabolite PD): 0.8974
Log2(fold change) PE ([2]; metabolite PE): 0.4326
Log2(fold change) PEE ([2]; metabolite PEE): -0.3726
Log2(fold change) PEEK ([2]; metabolite PEEK): 0.6684
Log2(fold change) PVNF ([2]; metabolite PVNF): -0.7950
Log2(fold change) Pyroglutamic acid ([2]; metabolite Pyroglutamic acid): -0.5088
Log2(fold change) Pyrophosphate ([2]; metabolite Pyrophosphate): 0.0000
Log2(fold change) Ribose-5-phosphate ([2]; metabolite Ribose-5-phosphate): -0.4878
Log2(fold change) S-adenosyl-L-homocysteine ([2]; metabolite S-adenosyl-L-homocysteine): -0.1665
Log2(fold change) S-adenosyl-L-methioninamine ([2]; metabolite S-adenosyl-L-methioninamine): 1.4172
Log2(fold change) S-adenosyl-L-methionine ([2]; metabolite S-adenosyl-L-methionine): 0.0000
Log2(fold change) S-methyl-5'-thioadenosine ([2]; metabolite S-methyl-5'-thioadenosine): 0.1323
Log2(fold change) SD ([2]; metabolite SD): 0.5833
Log2(fold change) SDL ([2]; metabolite SDL): 0.0000
Log2(fold change) SID ([2]; metabolite SID): 0.2266
Log2(fold change) Sedoheptulose bisphosphate ([2]; metabolite Sedoheptulose bisphosphate): -0.5430
Log2(fold change) Thiamine pyrophosphate ([2]; metabolite Thiamine pyrophosphate): -0.2018
Log2(fold changes) UDP-D-glucose ([2]; metabolite UDP-D-glucose, log2 fold change): -0.1946
Log2(fold changes) UDP-D-glucuronate ([2]; metabolite UDP-D-glucuronate, log2 fold change): -0.2169
Log2(fold changes) UDP-N-acetyl-glucosamine ([2]; metabolite UDP-N-acetyl-glucosamine, log2 fold change): -0.3874
Log2(fold changes) UDP ([2]; metabolite UDP, log2 fold change): -0.9589
Log2(fold changes) UMP ([2]; metabolite UMP, log2 fold change): -0.1735
Log2(fold changes) UTP ([2]; metabolite UTP, log2 fold change): 0.0000
Log2(fold change) hydroxyphenylpyruvate ([2]; metabolite hydroxyphenylpyruvate): 0.0000
Log2(fold change) hydroxyproline/Aminolevulinate ([2]; metabolite hydroxyproline/Aminolevulinate): -0.3494
Log2(fold change) hypoxanthine ([2]; metabolite hypoxanthine): -0.2301
Log2(fold change) indole ([2]; metabolite indole): 0.0000
Log2(fold change) inosine ([2]; metabolite inosine): -0.0358
Log2(fold change) isoleucine ([2]; metabolite isoleucine): 0.0000
Log2(fold change) lactate ([2]; metabolite lactate): -0.6338
Log2(fold change) leucine ([2]; metabolite leucine): 0.0000
Log2(fold change) lysine ([2]; metabolite lysine): -0.1255
Log2(fold change) malate ([2]; metabolite malate): 0.0012
Log2(fold change) maleic acid ([2]; metabolite maleic acid): 0.0284
Log2(fold change) methionine ([2]; metabolite methionine): -0.0998
Log2(fold change) myo-inositol ([2]; metabolite myo-inositol): -0.7776
Log2(fold change) nicotinamide mononucleotide ([2]; metabolite nicotinamide mononucleotide): -0.2457
Log2(fold change) nicotinate ([2]; metabolite nicotinate): -0.3114
Log2(fold change) ornithine ([2]; metabolite ornithine): 0.0122
Log2(fold change) orotate ([2]; metabolite orotate): 0.0632
Log2(fold change) orotidine-5'-phosphate ([2]; metabolite orotidine-5'-phosphate): -0.3294
Log2(fold change) oxaloacetate ([2]; metabolite oxaloacetate): -0.6486
Log2(fold change) p-aminobenzoate ([2]; metabolite p-aminobenzoate): 0.0000
Log2(fold change) p-hydroxybenzoate ([2]; metabolite p-hydroxybenzoate): 0.0000
Log2(fold change) pantothenate ([2]; metabolite pantothenate): -0.1388
Log2(fold change) phenylalanine ([2]; metabolite phenylalanine): -0.3732
Log2(fold change) phenylpyruvate ([2]; metabolite phenylpyruvate): 0.0000
Log2(fold change) phosphoenolpyruvate ([2]; metabolite phosphoenolpyruvate): -0.1822
Log2(fold change) prephenate ([2]; metabolite prephenate): 0.5798
Log2(fold change) proline ([2]; metabolite proline): -0.4229
Log2(fold change) pyridoxine ([2]; metabolite pyridoxine): -0.3069
Log2(fold change) pyruvate ([2]; metabolite pyruvate): -1.0960
Log2(fold change) riboflavin ([2]; metabolite riboflavin): -0.1793
Log2(fold change) ribose ([2]; metabolite ribose): -0.0760
Log2(fold change) ribose-phosphate ([2]; metabolite ribose-phosphate): -0.9121
Log2(fold change) ribulose-5-phosphate ([2]; metabolite ribulose-5-phosphate): -0.5577
Log2(fold change) serine ([2]; metabolite serine): -0.1539
Log2(fold change) sn-glycerol-3-phosphate ([2]; metabolite sn-glycerol-3-phosphate): 0.0054
Log2(fold change) succinate/Methylmalonic acid ([2]; metabolite succinate/Methylmalonic acid): -0.5977
Log2(fold change) succinyl-CoA/methylmalonyl-CoA ([2]; metabolite succinyl-CoA/methylmalonyl-CoA): 0.0000
Log2(fold change) taurine ([2]; metabolite taurine): -0.2559
Log2(fold change) thiamine ([2]; metabolite thiamine): -0.2060
Log2(fold change) threonine/homoserine ([2]; metabolite threonine/homoserine): -0.2606
Log2(fold change) thymidine ([2]; metabolite thymidine): 0.0000
Log2(fold changes) thymine ([2]; metabolite thymine, log2 fold change): 0.0000
Log2(fold changes) trehalose-6-Phosphate ([2]; metabolite trehalose-6-Phosphate, log2 fold change): 0.0000
Log2(fold changes) tryptophan ([2]; metabolite tryptophan, log2 fold change): -0.8402
Log2(fold changes) tyrosine ([2]; metabolite tyrosine, log2 fold change): -0.1716
Log2(fold changes) uridine ([2]; metabolite uridine, log2 fold change): 0.0000
Ratio lowest IC50 8hr/IC50 72hr ([3]; 3D7-A10): 0.7
killing in stage specificity assay ([3]; 8-h exposures, survival curves): incomplete killing
IC50 ([3]; 3D7, 8 h, read-out: IC50^8h values at all tested stages, 8-h exposures, all asexual blood stages): > 1 µM
IC50 ([3]; 3D7, read-out: Early rings Mean IC50 (IC50^8h), 8-h exposure 0–8 hr, 3D7-A10, survival at 60 h): 5.74 µM
IC50 ([3]; 3D7, read-out: Early trophozoites Mean IC50 (IC50^8h), 8-h exposure 16–24 hr, 3D7-A10, survival at 60 h): 3.31 µM
IC50 ([3]; 3D7, read-out: Late rings Mean IC50 (IC50^8h), 8-h exposure 8–16 hr, 3D7-A10, survival at 60 h): 7.87 µM
IC50 ([3]; 3D7, read-out: Late trophozoites Mean IC50 (IC50^8h), 8-h exposure 24–32 hr, 3D7-A10, survival at 60 h): 1.35 µM
IC50 ([3]; 3D7, read-out: Schizonts Mean IC50 (IC50^8h), 8-h exposure 32–40 hr, 3D7-A10, survival at 60 h): 5.91 µM
Stage of peak activity (Figure 6) ([3]; period when the parasite was most susceptible (lowest IC50^8h)): late trophozoites
Peak Activity (Table S1) ([3]; stage(s) with the lowest IC50^8h): Late Trophs
outcome of resistance selections (continuous exposure or pulsing) ([4]; 5 × 10^8 to 1 × 10^9 3D7-A10 or Dd2-B2 parasites, 3–6 × IC50^72h): did not result in MMV000787-resistant parasites
minimum inocula of resistance ([4]; from failed selections in 3D7-A10 / Dd2-B2): above 5 × 10^8 parasites

— publication PMC7031696 (Cell chemical biology, 2019)
